Results reported in patent US20130245006A1, “NOVEL INDOLIZINE DERIVATIVES, AND PREPARATION AND THERAPEUTIC USE THEREOF” (SANOFI, priority 2010, published 2013).
Converted amounts (≈) assume the structure as drawn. Structures can show the parent of a compound that is named as a salt.

Test: Solubility by HPLC relative to a reference sample
Assay type: physicochemical
Settings: aqueous buffer, phosphate buffer, at the pH given
Description: The evaluation of the solubility of the compounds of the invention is carried out at pH 4 (using a phosphate buffer, […]) by HPLC using an H2O/CH3CN/CH3SO3H gradient, relative to a reference sample (a dilute solution of the product to be evaluated which serves as an internal control). The solubility S results are expressed in mg/ml. Generally, the compounds of the present invention have a solubility S≧4 mg/ml at pH≧4. Among them, mention may be made of the solubilities of the following compounds in the table below: […]

Question: For `CCc1cc2cc(C(=O)N(CC)Cc3cc(C)on3)ccn2c1C(=O)c1ccc(CCCNC(C)(C)C)cc1` [compound 46, 3-[4-(3-tert-Butylaminopropyl)benzoyl]-2-ethylindolizine-7-carboxylic acid ethyl(5-methylisoxazol-3-ylmethyl)amide], which solubility is on record?
Answer: 1.73 mg/mL (≈ 3.27 mM)

Question: For `CCc1cc2cc(C(=O)N3CCNC(=O)CC3)ccn2c1C(=O)c1ccc(CCCNC2CCCC2)cc1` [compound 53, 1-{3-[4-(3-Cyclopentylaminopropyl)benzoyl]-2-ethylindolizine-7-carbonyl}[1,4]diazepam-5-one], which solubility is on record?
Answer: 6.93 mg/mL (≈ 13.5 mM)

Test: not given
Settings: not given

Question: For `CCN(Cc1nnn(C)n1)C(=O)c1ccn2c(C(=O)c3ccc(CCCNC(C)(C)C)cc3)c(C3CCC3)cc2c1` [compound 42, 3-[4-(3-tert-Butylaminopropyl)benzoyl]-2-cyclobutylindolizine-7-carboxylic acid ethyl(2-methyl-2H-tetrazol-5-ylmethyl)amide], which melting point is on record?
Answer: 195 °C

Question: With `CCN(Cc1nnn(C)n1)C(=O)c1ccn2c(C(=O)c3ccc(CCCNC(C)(C)C)cc3)c(C)cc2c1` [compound 78, 3-[4-(3-tert-Butylaminopropyl)benzoyl]-2-methylindolizine-7-carboxylic acid ethyl(2-methyl-2H-tetrazol-5-ylmethyl)amide] as the molecule, how does the melting point read?
Answer: 153 °C

Question: Which melting point does the source give for `CCc1cc2cc(C(=O)O[C@H]3CNC(=O)C3)ccn2c1C(=O)c1ccc(CCCNC(C)(C)C)cc1` [compound 52, 3-[4-(3-tert-Butylaminopropyl)benzoyl]-2-ethylindolizine-7-carboxylic acid (R)-5-oxopyrrolidin-3-yl ester] here?
Answer: 162 °C

Question: With `CCc1cc2cc(C(=O)N(CC)Cc3nnn(C)n3)ccn2c1C(=O)c1ccc(CCCNC(C)(C)C)cc1` (as salt: hydrochloride) [Compound No. 17, 3-[4-(3-tert-Butylaminopropyl)benzoyl]-2-ethylindolizine-7-carboxylic acid ethyl(2-methyl-2H-tetrazol-5-ylmethyl)amide] as the molecule, how does the melting point read?
Answer: 172 °C

Question: For `CCCCc1cc2cc(C(=O)N(CC)CC)ccn2c1C(=O)c1ccc(C2CCNCC2)cc1` [compound 66, 2-Butyl-3-(4-piperidin-4-yl-benzoyl) indolizine-7-carboxylic acid diethylamide], which melting point is on record?
Answer: 149.6 °C

Question: With `CCc1cc2cc(C(=O)N(CC)Cc3ccn(C)n3)ccn2c1C(=O)c1ccc(CCCNC(C)(C)C)cc1` [compound 44, 3-[4-(3-tert-Butylaminopropyl)benzoyl]-2-ethylindolizine-7-carboxylic acid ethyl(1-methyl-1H-pyrazol-3-ylmethyl)amide] as the molecule, how does the melting point read?
Answer: 149 °C

Question: Which melting point does the source give for `CCc1cc2cc(C(=O)N(CC)Cc3cnn(C)c3)ccn2c1C(=O)c1ccc(CCCNC(C)(C)C)cc1` [compound 45, 3-[4-(3-tert-Butylaminopropyl)benzoyl]-2-ethylindolizine-7-carboxylic acid ethyl(1-methyl-1H-pyrazol-4-ylmethyl)amide] here?
Answer: 173 °C

Question: Which melting point does the source give for `CCc1cc2cc(C(=O)N3CCNC(=O)C3)ccn2c1C(=O)c1ccc(CCCNC(C)(C)C)cc1` [compound 38, 4-{3-[4-(3-tert-Butylaminopropyl)benzoyl]-2-ethylindolizine-7-carbonyl}piperazin-2-one] here?
Answer: 122 °C

Question: Which melting point does the source give for `CCc1cc2cc(C(=O)N(CC)Cc3cc(C)on3)ccn2c1C(=O)c1ccc(CCCNC(C)(C)C)cc1` [compound 46, 3-[4-(3-tert-Butylaminopropyl)benzoyl]-2-ethylindolizine-7-carboxylic acid ethyl(5-methylisoxazol-3-ylmethyl)amide] here?
Answer: 175 °C

Question: For `CCOCCN(CC)C(=O)c1ccn2c(C(=O)c3ccc(CCCNC4CCCC4)cc3)c(CC)cc2c1` [compound 37, 3-[4-(3-Cyclopentylaminopropyl)benzoyl]-2-ethylindolizine-7-carboxylic acid (2-ethoxyethyl)ethylamide], which melting point is on record?
Answer: 146.4 °C

Question: Which melting point does the source give for `CCc1cc2cc(C(=O)N(CC(=O)OC)C(C)C)ccn2c1C(=O)c1ccc(CCC(C)(C)NC2CCCC2)cc1` (as salt: hydrochloride) [Compound No. 19, ({3-[4-(3-Cyclopentylamino-3-methylbutyl)benzoyl]-2-ethylindolizine-7-carbonyl}isopropylamino)acetic acid methyl ester] here?
Answer: 245 °C

Question: Which melting point does the source give for `CCc1cc2cc(C(=O)N(CC)Cc3nnn(C)n3)ccn2c1C(=O)c1ccc(CCC(C)(C)NC(C)(C)C)cc1` (as salt: hydrochloride) [Compound No. 18, 3-[4-(3-tert-Butylamino-3-methylbutyl)benzoyl]-2-ethylindolizine-7-carboxylic acid ethyl(2-methyl-2H-tetrazol-5-ylmethyl)amide] here?
Answer: 122 °C

Question: For `CCc1cc2cc(C(=O)N3CCNC(=O)CC3)ccn2c1C(=O)c1ccc(CCCNC2CCCC2)cc1` [compound 53, 1-{3-[4-(3-Cyclopentylaminopropyl)benzoyl]-2-ethylindolizine-7-carbonyl}[1,4]diazepam-5-one], which melting point is on record?
Answer: 176 °C

Question: Which melting point does the source give for `CCc1cc2cc(C(=O)OCc3nnn(C)n3)ccn2c1C(=O)c1ccc(CCCNC(C)(C)C)cc1` [compound 49, 3-[4-(3-tert-Butylaminopropyl)benzoyl]-2-ethylindolizine-7-carboxylic acid 2-methyl-2H-tetrazol-5-ylmethyl ester] here?
Answer: 203 °C
